This experiment deals with T1, HDAC6F H216A mutant (Homo sapiens, UniProt Q9UBN7, H216A).
T1 construct: made in house; host or cells: TAg Jurkat cells, transient transfection, anti-FLAG M2 immunoprecipitation
T1 sequence (Q9UBN7 1-1215 H216A): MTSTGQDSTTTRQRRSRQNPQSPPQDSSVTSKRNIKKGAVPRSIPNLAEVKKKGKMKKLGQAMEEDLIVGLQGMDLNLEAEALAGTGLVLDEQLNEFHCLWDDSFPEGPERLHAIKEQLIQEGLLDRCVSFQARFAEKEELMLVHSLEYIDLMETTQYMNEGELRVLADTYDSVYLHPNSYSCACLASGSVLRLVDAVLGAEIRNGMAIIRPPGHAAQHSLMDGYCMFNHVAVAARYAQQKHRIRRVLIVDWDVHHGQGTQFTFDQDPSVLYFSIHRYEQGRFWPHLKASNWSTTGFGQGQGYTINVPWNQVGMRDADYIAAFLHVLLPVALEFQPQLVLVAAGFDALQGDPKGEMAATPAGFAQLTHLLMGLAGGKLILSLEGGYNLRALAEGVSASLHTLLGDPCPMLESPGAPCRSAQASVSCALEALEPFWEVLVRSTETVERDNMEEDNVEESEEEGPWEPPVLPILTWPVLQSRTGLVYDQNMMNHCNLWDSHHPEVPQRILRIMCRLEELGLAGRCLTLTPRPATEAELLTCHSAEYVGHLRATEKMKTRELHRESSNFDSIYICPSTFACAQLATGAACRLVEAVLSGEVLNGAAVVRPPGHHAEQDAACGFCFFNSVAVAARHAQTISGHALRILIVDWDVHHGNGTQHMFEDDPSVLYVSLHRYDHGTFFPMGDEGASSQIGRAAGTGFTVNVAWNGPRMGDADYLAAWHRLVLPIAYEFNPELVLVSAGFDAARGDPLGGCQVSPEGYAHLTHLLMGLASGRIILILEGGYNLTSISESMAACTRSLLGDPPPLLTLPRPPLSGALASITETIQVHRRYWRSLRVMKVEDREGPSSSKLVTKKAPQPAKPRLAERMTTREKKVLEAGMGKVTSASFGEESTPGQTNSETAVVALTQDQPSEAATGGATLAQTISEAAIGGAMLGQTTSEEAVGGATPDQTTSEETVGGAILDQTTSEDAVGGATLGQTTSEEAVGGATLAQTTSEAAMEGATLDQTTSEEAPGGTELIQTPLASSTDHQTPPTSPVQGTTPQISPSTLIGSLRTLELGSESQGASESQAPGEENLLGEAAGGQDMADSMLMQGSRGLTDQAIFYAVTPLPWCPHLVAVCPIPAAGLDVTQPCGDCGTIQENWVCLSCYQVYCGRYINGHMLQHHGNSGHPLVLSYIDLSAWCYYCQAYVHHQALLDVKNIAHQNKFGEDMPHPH
As to the kind of experiment: in vitro deacetylase assay with [3H]-histones, HDAC6F H216A mutant. It is filed as biochemical. As to conditions: [3H]-labeled histones, n=3. On the procedure: FLAG-tagged HDAC pBJ5 constructs were transiently transfected by electroporation with 5 μg DNA for expression of recombinant proteins (C. M. Grozinger, C. A. Hassig and S. L. Schreiber, Proc. Natl. Acad. Sci. USA, 27, 4868 (1999); and C. A. Hassig et al., Proc. Natl. Acad. Sci. USA 95, 3519 (1998)]. Cells were mock transfected without DNA or with a non-FLAG-tagged pCMV-LacZ construct as a negative control. Forty-eight hours after transfection recombinant proteins were immunoprecipitated using anti-FLAG M2 agarose affinity gel beads as described [C. A. Hassig et al., Proc. Natl. Acad. Sci. USA 95, 3519 (1998)]. Western blotting using anti-acetylated α-tubulin (1:1000) anti-tubulin (1:1000), and anti-acetylated (K9, K14) histone H3 (1:1000) antibodies was performed using standard methods (K. M. Koeller et al., Chemistry & Biology, 10 (5) (2003) pp. 397-410). […]
[^3H]Acetate-incorporated histones were isolated from butyrate-treated HeLa cells as described [J. Taunton, C. […] Immunoprecipitates were incubated with acetylated histones and HDAC activity determined by scintillation counting as described [J. Taunton, C. […] After centrifugation, the supernatant (diluted to 0.4 μg tubulin) and α-FLAG M2 agarose affinity gel beads were analyzed by western blotting with an anti-FLAG M2 antibody (1:1750) to ensure equal protein levels.

Turning to `CC(/C=C/C(=O)NO)=C\[C@@H](C)C(=O)c1ccc(N(C)C)cc1` [TSA, trichostatin A, reference compound], the “inhibition of HDAC activity of HDAC6F H216A mutant” value is listed as “only partial inhibited by TSA or tubacin”. Turning to `O=C(CCCCCCC(=O)Nc1ccc([C@@H]2OC(c3ccc(CO)cc3)C[C@H](CSc3nc(-c4ccccc4)c(-c4ccccc4)o3)O2)cc1)NO` (some centres unmarked) [tubacin], the “inhibition of HDAC activity of HDAC6F H216A mutant” value is on record as “only partial inhibited by TSA or tubacin”.

These data come from patent US8178579B2, “Dioxanes and uses thereof” (President and Fellows of Harvard College, priority 2001, dated 2012).
